Laboratory results from US20190030053A1, “COMPOSITION FOR INCREASING EXPRESSION OF PGC-1alpha” (BENEBIOSIS CO., LTD., priority 2016, published 2019).

Assays:
[1] = tested on: mouse aortic smooth muscle cells (MASMs); experiment: Intracellular H2O2 (ROS values, H2DCFDA) in MASMs of aging stimulation model mice; format: cell-based; settings: MASMs from aging stimulation model mice; SL added to culture liquid
Protocol: In addition, for cell-level tests, mouse aortic smooth muscle cells (MASMs) were isolated from the control group fed with a high-fat diet (Rodent Diet with 60 kcal % fat) without SL administration (Griendling et al., 1991), and the SL (3′-SL & 6′-SL) compositions were added to the culture liquid, followed by incubation. For intracellular H2O2 measurement (ROS values), the cells were cultured in 12-well culture plates immersed in 0.1% bovin calf serum. The intracellular ROS values were measured using H2DCFDA. For assay, the cells were cultured together with H2DCFDA in HBSS buffer for 30 minutes. The cells were trypsinized, washed, and lysed in HBSS. The fluorescence values were measured immediately by a CytoFluor plate reader (FIG. 17a).
In FIGS. 17a and 17b, MASMs were extracted from the aging stimulation model mouse control group, and the SL (3′-SL & 6′-SL) compositions were added to the culture liquid to conduct comparison.
FIGS. 17a and 17b show the measurement results of intercellular H2O2 (ROS values) (FIG. 17a) and the measurement results of mitochondrial superoxide production (FIG. 17b).

[2] = tested on: ICH models; experiment: Modified limb placing test (MLPT) in intracerebral hemorrhage (ICH) models; format: in vivo, rat; settings: first day and third day after ICH induction; intraperitoneal
Text: In order to investigate the changes in ischemic volume and modified limb placing test (MLPT) score by treatment with SL (3′-SL & 6′-SL) compositions in stroke models, 4-week-old mice were purchased from Central Lab Animal (Korea). Water was freely accessible, and a commercially available pellet feed (Dooyeul Biotech, Korea) was given for one week. Stroke models involving temporary and permanent middle cerebral artery (MCA) occlusion and intracerebral hemorrhage (ICH) were fabricated using 6-week-old male Sprague-Dawley rats (weight, average 185.3±15.8 g) and male BALB/c mice weight, average 24.6±3.8 g). […] The model was suspended at 10 cm above a table, and the stretch of the forelimbs toward the table was scored (0 points for normal stretch and 1 point for abnormal fexion). […] The evaluation results for three tasks were scored in the following manner: 0 points for normal performance, 1 point for performance with a delay (at least 2 seconds) or incomplete performance, and 2 points for no performance. […]

[3] = tested on: PGC-1α and related genes; experiment: Gene expression in brain and hippocampus of Huntington's disease models; format: in vivo, mouse; settings: R6/2 mice, oral 0.1 mg/kg/day, 10 weeks
Text: In order to investigate the changes in gene expression and cognitive ability by the treatment with SL (3′-SL & 6′-SL) compositions in Huntington's brain disease model, 4-week-old mice were purchased from Central Lab Animal (Korea). Water was freely accessible, and a commercially available pellet feed (Dooyeul Biotech, Korea) was given for one week. At 5 weeks of age, the mice were divided into three groups (composed of eight mice for each group): Eight 5-week-old male c57/BL6 mice (normal mice; initial body weight, average 25.3±4.3 g) treated with a normal diet were used for a control group. […]
Sialyllactose or DW was orally administered daily. […] The dietary intake and body weight change were measured every 5 days. […]
The gene expression changes by the treatment with SL (3′-SL & 6′-SL) compositions were quantitatively compared in two main organs (brain and hippocampus) associated with bran diseases. RNA was extracted by TRIzol agent (Invitrogen). cDNA was synthesized by using RNA, which has been extracted as above and quantified, and a reverse transcription system (Promega, USA). The expression patterns of PGC-1α and related genes were measured by using pre-designed primers and probes (Applied Biosystems; PGC-1α, Mm00447181_m1, GAPDH, and Mm99999915_q1) for the synthesized cDNA and analysis targets (Fndc5, PGC-1α, Erra, UCP1, BDNF, SOD2, and GPX1). […]

`CC(=O)N[C@H]1[C@H]([C@H](O)[C@H](O)CO)O[C@@](OC[C@H]2O[C@@H](O[C@H]3[C@H](O)[C@@H](O)[C@H](O)O[C@@H]3CO)[C@H](O)[C@@H](O)[C@H]2O)(C(=O)O)C[C@@H]1O` [6′-SL, α-NeuNAc-(2→6)-β-D-Gal-(1→4)-D-Glc] was tested. Which “intracellular H2O2 (ROS values)” value [1] did it give?
Its value is “dropped the ROS values”.

And the “MLPT test score vs control group (neurodegeneration inhibitory effects)” value [2]?
The value was “lower”.

And the “expression levels of PGC-1α and related genes vs SL non-administration (Huntington's disease model) group” value [3]?
Its value is “very excellent”.

And the “expression levels of PGC-1α and related genes vs normal control group” value [3]?
Its value is “somewhat lower”.

`CC(=O)N[C@H]1[C@H]([C@H](O)[C@H](O)CO)O[C@@](O[C@H]2[C@@H](O)[C@@H](CO)O[C@@H](O[C@H]3[C@H](O)[C@@H](O)C(O)O[C@@H]3CO)[C@@H]2O)(C(=O)O)C[C@@H]1O` (stereo partly drawn) [3′-SL, α-NeuNAc-(2→3)-β-D-Gal-(1→4)-D-Glc] was tested. Which “intracellular H2O2 (ROS values)” value [1] did it give?
The value was “dropped the ROS values”.

And the “MLPT test score vs control group (neurodegeneration inhibitory effects)” value [2]?
Its value is “relatively low compared with 6′-SL”.

What about the “expression levels of PGC-1α and related genes vs SL non-administration (Huntington's disease model) group” value [3] of the same molecule?
Its value is “relatively low compared with 6′-SL”.
